Patent publication US11490622B2, “Substituted heterocycles as harmful arthropod controlling agents” (SUMITOMO CHEMICAL COMPANY, LIMITED, priority 2017, dated 2022)

Legend:
[1] = system: Western corn rootworms (Diabrotica virgifera virgifera); test: Test method 5: corn seedling immersed in diluted solution, Western corn rootworm larvae; format: in vivo; conditions: 120 h, corn seedling immersed 30 seconds, second instar larvae, after 5 days, 25° C., read-out: mortality of insects
Experimental: Each 1 mg of the test compounds is dissolved into 50 μL of a mixed solution of polyoxyethylene sorbitan mono-cocoate and acetone (polyoxyethylene sorbitan mono-cocoate:acetone=5:95 (v/v ratio)). Thereto is added water containing 0.03% by volume of Shindain (registered trademark) to prepare a diluted solution containing a prescribed concentration of the test compound.
A young entire seedling of Corns (Zea mays) is immersed into the diluted solution for 30 seconds. Thereafter, each two grains of the seedlings are installed in a plastic petri dish ([…]), and 10 Western corn rootworms (Diabrotica virgifera virgifera) at the second instar larval stage are released into the dish. After 5 days, the number of the dead insects is counted, and the mortality of insects is calculated by the following equation. Mortality (%)={Number of dead insects/10}×100
Present compound Nos: 1, 4, 7, 9 to 13, 23, 24, 26 to 29, 32, 33, 35, 38, 39, 41, 43, 44, 47, 48, 59, 60, 62, 63, 67 to 70, 73 to 83, and 96

[2] = system: tobacco cutworms (Spodoptera litura); test: Test method 3: sprayed cabbage seedling, tobacco cutworm larvae; format: in vivo; conditions: 120 h, sprayed 20 mL/seedling on cabbage, second instar larvae, after 5 days, 25° C., read-out: mortality of insects
Experimental: Test compounds are made to a formulation according to a similar method to that described in the Formulation example 5, and thereto is added water containing 0.03 v/v % of Shindain (registered trademark) to prepare a diluted solution containing a prescribed concentration of the test compound.
Cabbage (Brassicae oleracea) seedling (on the developmental stage of the second to third true leaf) is planted in a cup, and the diluted solutions are sprayed into the seedling at a ratio of 20 mL/seedling. Thereafter, the stem and leaf thereof is cut out and then is installed into a cup that is covered with filter paper on the bed of the cup. Five (5) tobacco cutworms (Spodoptera litura) at the second instar larval stage are released into the cup. After 5 days, the number of the surviving insects is counted, and the mortality of insects is calculated by the following equation. Mortality (%)=(1−Number of surviving insects/5)×100
Present compound Nos: 1, 3, 4, 6 to 12, 23, 25 to 30, 32, 35 to 43, 47 to 49, 92, 93, 97, and 107

Compound CCSc1c(-c2ccc(OCC(F)(F)C(F)(F)F)n(C)c2=O)nc2ccc(C(F)(F)F)cn12 [compound 1] has a mortality at 500 ppm [1] of no less than 80% and a mortality at 500 ppm [2] of no less than 80%.
